Measured values reported in ChEMBL document CHEMBL4130430, “Efficacy of a series of alpha-pyrone derivatives against Leishmania (L.) infantum and Trypanosoma cruzi” (Eur J Med Chem, 2017).
Calls of active or inactive are those of the source. No cut-off for these calls is given here.

How the values were obtained:
[1] = Selectivity index, ratio of IC50 for mouse NCTC-929 cells to IC50 for Trypanosoma cruzi Y trypomastigotes; format: toxicity; conditions: NCTC-929 cells versus Trypanosoma cruzi Y trypomastigotes, read-out: Ratio IC50
Leishmania infantum [2] = experiment: Antileishmanial activity against Leishmania infantum MHOM/BR/1972/LD amastigotes infected in BALB/c mouse peritoneal macrophages assessed as parasite viability after 72 hrs by Giemsa staining-based light microscopic analysis; format: functional, organism-based
Leishmania infantum [3] = experiment: Antileishmanial activity against Leishmania infantum MHOM/BR/1972/LD promastigotes assessed as parasite viability up to 200 uM after 48 hrs by MTT assay; format: functional, organism-based
Trypanosoma cruzi [4] = experiment: Antitrypanosomal activity against Trypanosoma cruzi Y trypomastigotes assessed as parasite viability after 24 hrs by resazurin staining-based hemocytometric analysis; format: functional, organism-based
[5] = Selectivity index, ratio of IC50 for mouse NCTC-929 cells to IC50 for Leishmania infantum MHOM/BR/1972/LD amastigotes infected in BALB/C mouse peritoneal macrophages; format: toxicity; conditions: read-out: Ratio IC50
L929 = experiment: Cytotoxicity against mouse NCTC-929 cells after 72 hrs by MTT assay; format: cell-based; conditions: L929, 72 h
Trypanosoma cruzi [6] = experiment: Antitrypanosomal activity against Trypanosoma cruzi Y trypomastigotes assessed as parasite viability up to 200 uM after 24 hrs by resazurin staining-based hemocytometric analysis; format: functional, organism-based
Leishmania infantum [7] = experiment: Antileishmanial activity against Leishmania infantum MHOM/BR/1972/LD amastigotes infected in BALB/c mouse peritoneal macrophages assessed as parasite viability up to 200 uM after 72 hrs by Giemsa staining-based light microscopic analysis; format: functional, organism-based
Leishmania infantum [8] = experiment: Antileishmanial activity against Leishmania infantum MHOM/BR/1972/LD promastigotes assessed as parasite viability after 48 hrs by MTT assay; format: functional, organism-based
Trypanosoma cruzi [9] = experiment: Antitrypanosomal activity against Trypanosoma cruzi Y infected in BALB/c mouse assessed as reduction in blood parasitemia at 100 mg/kg/day, […] dosed administered for 10 consecutive days starting on day 5 post infection measured on day 14 post infection relative to control; format: functional; parameters: scale not given: the % may be the effect or the level left
Trypanosoma cruzi [10] = experiment: Antitrypanosomal activity against Trypanosoma cruzi Y infected in BALB/c mouse assessed as reduction in blood parasitemia at 100 mg/kg, po administered every day starting on day 5 post infection measured on day 8 post infection; format: functional; parameters: scale not given: the % may be the effect or the level left
Mus musculus [11] = experiment: Toxicity in BALB/c mouse infected with Trypanosoma cruzi Y assessed as mortality at 100 mg/kg/day, po administered for 10 consecutive days starting on day 5 post infection measured during compound dosing; format: organism-based; conditions: in vivo
Trypanosoma cruzi [12] = experiment: Induction of mitochondrial membrane hyperpolarization in Trypanosoma cruzi Y trypomastigotes after 1 hr by rhodamine123/propidium iodide staining-based flow cytometric analysis; format: functional, organism-based
Trypanosoma cruzi [13] = experiment: Antitrypanosomal activity against Trypanosoma cruzi Y infected in BALB/c mouse assessed as reduction in blood parasitemia at 30 mg/kg, ip administered every day starting on day 5 post infection measured on day 8 post infection; format: functional, organism-based
Mus musculus [14] = experiment: Hepatotoxicity in BALB/c mouse infected with Trypanosoma cruzi Y assessed as hydropic degeneration of hepatocytes at 30 mg/kg/day, ip dosed for 10 consecutive days by hematoxylin and eosin staining-based light microscopic analysis; format: toxicity, organism-based; conditions: in vivo
Trypanosoma cruzi [15] = experiment: Induction of mitochondrial membrane hyperpolarization in Trypanosoma cruzi Y trypomastigotes assessed as increase in fluorescence at IC50 after 2 hrs by rhodamine123/propidium iodide staining-based flow cytometric analysis relative to control; format: functional
Trypanosoma cruzi [16] = experiment: Antitrypanosomal activity against Trypanosoma cruzi Y infected in BALB/c mouse assessed as reduction in blood parasitemia at 30 mg/kg/day, ip dosed administered for 10 consecutive days starting on day 5 post infection measured on day 14 post infection relative to control; format: functional; parameters: scale not given: the % may be the effect or the level left
Mus musculus [17] = experiment: Toxicity in BALB/c mouse infected with Trypanosoma cruzi Y assessed as mortality at 30 mg/kg/day, ip administered for 10 consecutive days starting on day 5 post infection measured during compound dosing; format: organism-based; conditions: in vivo
Trypanosoma cruzi [18] = experiment: Induction of mitochondrial membrane hyperpolarization in Trypanosoma cruzi Y trypomastigotes assessed as increase in fluorescence at IC90 after 2 hrs by rhodamine123/propidium iodide staining-based flow cytometric analysis relative to control; format: functional
Trypanosoma cruzi [19] = experiment: Potency index, ratio of benznidazole IC50 to test compound IC50 for Trypanosoma cruzi Y trypomastigotes; format: functional
Trypanosoma cruzi [20] = experiment: Antitrypanosomal activity against Trypanosoma cruzi Y intracellular amastigotes infected in BALB/c mouse peritoneal macrophages at 25 uM after 48 hrs by Giemsa staining-based light microscopic analysis; format: functional
Trypanosoma cruzi [21] = experiment: Induction of plasma membrane permeabilization in Trypanosoma cruzi Y trypomastigotes at IC50 to IC90 measured every 1 hr up to 7 hrs by Sytox Green staining-based fluorimetric analysis; format: functional, organism-based

| IC50 (Trypanosoma cruzi [4]) | SMILES | selectivity ratio [1] | Activity (Leishmania infantum [3]) | IC50 (L929) | Activity (Trypanosoma cruzi [6]) | Activity (Leishmania infantum [7]) | other results |
| --- | --- | --- | --- | --- | --- | --- | --- |
| 72.6 µM | CCCCCCNC(=O)c1c(O)cc(C)oc1=O | 2.7 | inactive | 196 µM | – | – | IC50 (Leishmania infantum [2]): 54 µM; selectivity ratio [5]: 3.6 |
| – | CCCCCC(=O)c1c(O)cc(C)oc1=O | – | inactive | > 200 µM | inactive | – | IC50 (Leishmania infantum [2]): 13.8 µM; selectivity ratio [5]: > 14.5 |
| 81.4 µM | Cc1cc(O)c(C(=O)NCCCc2ccccc2)c(=O)o1 | 1.7 | inactive | 143 µM | – | inactive | – |
| – | Cc1cc(O)c(C(=O)NCc2ccccc2)c(=O)o1 | – | inactive | > 200 µM | inactive | – | IC50 (Leishmania infantum [2]): 52.8 µM; selectivity ratio [5]: 5 |
| 16.1 µM | CCCCCCCCCCCCc1c(O)cc(C)oc1=O | 3.5 | – | 57.2 µM | – | inactive | IC50 (Leishmania infantum [8]): 138 µM |
| 26.6 µM | CCCCCCCCCCCCCCCCc1c(O)cc(C)oc1=O | 1.4 | inactive | 38.2 µM | – | inactive | – |
| – | Cc1cc(O)c(C(=O)C2CCCCC2)c(=O)o1 | – | inactive | > 200 µM | inactive | inactive | – |
| 66.3 µM | CCCCCCCCCCCCCCCC(=O)c1c(O)cc(C)oc1=O | 2.5 | inactive | 164 µM | – | inactive | – |
| – | CCCCCCCCCCc1c(O)cc(C)oc1=O | – | – | 56 µM | inactive | inactive | IC50 (Leishmania infantum [8]): 118 µM |
| 4.9 µM | CCCCCCCCCCCCCCc1c(O)cc(C)oc1=O | 4.9 | inactive | 24.1 µM | – | inactive | – |
| 32.2 µM | Cc1cc(O)c(CCC2CCCCC2)c(=O)o1 | 3.4 | inactive | 109 µM | – | inactive | – |
| – | CCCCCCCCCCCCCCCCOP(=O)([O-])OCC[N+](C)(C)C [MILTEFOSINE] | 32.6 | – | 241 µM | – | – | IC50 (Leishmania infantum [2]): 7.4 µM; IC50 (Leishmania infantum [8]): 16.2 µM |
| – | Cc1cc(O)c(C(=O)NCCc2ccccc2)c(=O)o1 | – | inactive | 178 µM | inactive | – | IC50 (Leishmania infantum [2]): 46.8 µM; selectivity ratio [5]: 3.8 |
| – | Cc1cc(O)c(CC2CCCCC2)c(=O)o1 | – | inactive | > 200 µM | inactive | inactive | – |
| – | Cc1cc(O)c(C(=O)Nc2ccc(OCc3ccccc3)cc2)c(=O)o1 | – | inactive | > 200 µM | inactive | inactive | – |
| 78.1 µM | CCCCCCCNC(=O)c1c(O)cc(C)oc1=O | 2.4 | inactive | 187 µM | – | inactive | – |
| – | Cc1cc(O)c(C(=O)Nc2ccc3c(c2)OCO3)c(=O)o1 | – | inactive | > 200 µM | inactive | inactive | – |
| 40 µM | CCCCCCCCc1c(O)cc(C)oc1=O | 3.6 | inactive | 145 µM | – | inactive | – |
| – | CCCCCCCCCCCCCCNC(=O)c1c(O)cc(C)oc1=O | – | inactive | > 200 µM | inactive | inactive | – |
| 17.5 µM | CCCCCCCCCC(=O)c1c(O)cc(C)oc1=O | 7.6 | inactive | 134 µM | – | inactive | – |
| – | CCCCCCc1c(O)cc(C)oc1=O | – | inactive | > 200 µM | inactive | inactive | – |
| – | Cc1cc(O)c(C(=S)Nc2ccccc2)c(=O)o1 | – | inactive | > 200 µM | inactive | – | IC50 (Leishmania infantum [2]): > 100 µM |
| 1.3 µM | CCCCCCCCCCCC(=O)c1c(O)cc(C)oc1=O | 71.1 | inactive | 90.3 µM | – | inactive | – |
| 90.5 µM | Cc1cc(O)c(C(=S)NC2CCCCC2)c(=O)o1 | 1.9 | inactive | 177 µM | – | inactive | – |
| 25.7 µM | CCCCCCCC(=O)c1c(O)cc(C)oc1=O | 5.4 | inactive | 140 µM | – | inactive | – |
| – | Cc1cc(O)c(C(=O)Nc2ccccc2)c(=O)o1 | – | inactive | > 200 µM | inactive | inactive | – |
| 4.4 µM | Cc1cc(O)c(C(=O)CCC2CCCCC2)c(=O)o1 | 26.8 | inactive | 117 µM | – | – | IC50 (Leishmania infantum [2]): 39.2 µM; selectivity ratio [5]: 2.9 |

| SMILES | IC50 (Trypanosoma cruzi [4]) | selectivity ratio [1] | Activity (Leishmania infantum [3]) | IC50 (L929) | Activity (Trypanosoma cruzi [6]) | Activity (Leishmania infantum [7]) | other results |
| --- | --- | --- | --- | --- | --- | --- | --- |
| O=C(Cn1ccnc1[N+](=O)[O-])NCc1ccccc1 [BENZNIDAZOLE] | 16.2 µM | > 36 | – | > 200 µM | – | – | Activity (Trypanosoma cruzi [9]): 100%; Activity (Trypanosoma cruzi [10]): 100%; Activity (Mus musculus [11]): Non-Toxic |
| CCCCCCCCCCCCCC(=O)c1c(O)cc(C)oc1=O | 2.6 µM | > 77.5 | inactive | > 200 µM | – | inactive | Activity (Trypanosoma cruzi [12]): Dose-dependent effect; Activity (Trypanosoma cruzi [13]): inactive; Activity (Mus musculus [14]): Non-Toxic; Activity (Trypanosoma cruzi [15]): 25%; Activity (Trypanosoma cruzi [16]): 55%; Activity (Mus musculus [17]): Non-Toxic; Activity (Trypanosoma cruzi [18]): 26%; Ratio IC50 (Trypanosoma cruzi [19]): 6; Activity (Trypanosoma cruzi [20]): 14%; Activity (Trypanosoma cruzi [21]): inactive |
